In patent US6737383B1, “Herbicidal oxadiazolidines” (priority 1999, dated 2004):

Tests used:
smallflower flatsedge = assay: Test B flood test smallflower flatsedge; assay type: in vivo, Cyperus difformis
In short: (§1)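 Plants were grown to the 2-leaf stage before treatment with test chemical, then held in a greenhouse for twelve to sixteen days. Injury was visually rated against untreated controls on a 0–10 scale, where 0 is no effect and 10 is complete control.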

soybean = assay: Test B pre/postemergence soybean; assay type: in vivo, Glycine max; details: for Plant response rating, Soybean: scale of 0 to 10 where 0 is no effect and 10 is complete control
In short: (§2)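 Herbicidal effect was estimated by eye on a ten-point control scale after plants spent twelve to sixteen days in a greenhouse following soil or foliar treatment. Foliar sprays targeted plants at one to four leaves; all doses were formulated in a non-phytotoxic solvent with surfactant.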

crabgrass = assay: Test B pre/postemergence crabgrass; assay type: in vivo, Digitaria sanguinalis
In short: as §2

morningglory = assay: Test B pre/postemergence morningglory; assay type: in vivo, Ipomoea hederacea; details: for Plant response rating, Morningglory: scale of 0 to 10 where 0 is no effect and 10 is complete control
In short: as §2

surinam grass = assay: Test B pre/postemergence surinam grass; assay type: in vivo, Brachiaria decumbens
In short: as §2

rice = assay: Test B flood test rice; assay type: in vivo, Oryza sativa
In short: as §1

wild oat = assay: Test B pre/postemergence wild oat; assay type: in vivo, Avena fatua; details: for Plant response rating, Wild oats: scale of 0 to 10 where 0 is no effect and 10 is complete control
In short: as §2

wheat = assay: Test B pre/postemergence wheat; assay type: in vivo, Triticum aestivum; details: for Plant response rating, Wheat: scale of 0 to 10 where 0 is no effect and 10 is complete control
In short: as §2

corn = assay: Test B pre/postemergence corn; assay type: in vivo, Zea mays
In short: as §2

bamyardgrass = assay: Test B flood test barnyardgrass; assay type: in vivo, Echinochloa crus-galli
In short: as §1

rape = assay: Test B pre/postemergence rape; assay type: in vivo, Brassica napus; details: for Plant response rating, Rape: scale of 0 to 10 where 0 is no effect and 10 is complete control
In short: as §2

blackgrass = assay: Test B pre/postemergence blackgrass; assay type: in vivo, Alopecurus myosuroides
In short: as §2

cocklebur = assay: Test B pre/postemergence cocklebur; assay type: in vivo, Xanthium strumarium
In short: as §2

pigweed = assay: Test B pre/postemergence pigweed; assay type: in vivo, Amaranthus retroflexus; details: for Plant response rating, Redroot pigweed: scale of 0 to 10 where 0 is no effect and 10 is complete control
In short: as §2

velvetleaf = assay: Test B pre/postemergence velvetleaf; assay type: in vivo, Abutilon theophrasti; details: for Plant response rating, Velvetleaf: scale of 0 to 10 where 0 is no effect and 10 is complete control
In short: as §2

duck salad = assay: Test B flood test duck salad; assay type: in vivo, Heteranthera limosa
In short: as §1

sugar beet = assay: Test B pre/postemergence sugar beet; assay type: in vivo, Beta vulgaris; details: for Plant response rating, Sugarbeets: scale of 0 to 10 where 0 is no effect and 10 is complete control
In short: as §2

giant foxtail = assay: Test B pre/postemergence giant foxtail; assay type: in vivo, Setaria faberii
In short: as §2

purple nutsedge = assay: Test B pre/postemergence purple nutsedge; assay type: in vivo, Cyperus rotundus; details: for Plant response rating, Nutsedge: scale of 0 to 10 where 0 is no effect and 10 is complete control
In short: as §2

[1] = Rate 62 g/ha, flood test species, Pre-emergence, visual evaluation after twelve to sixteen days
[2] = Rate 125 g/ha, under heading Pre-emergence, flood test species, visual evaluation after twelve to sixteen days
[3] = Rate 250 g/ha, Pre-emergence (flood test species), scale 0 to 10, 0 is no effect, 10 is complete control
[4] = Rate 500 g/ha, Pre-emergence, flood test species, scale 0 to 10 (0 no effect, 10 complete control)
[5] = Postemergence, Rate 250 g/ha, scale 0 to 10
[6] = Preemergence, Rate 250 g/ha, scale 0 to 10, 0 is no effect, 10 is complete control
[7] = Preemergence, Rate 500 g/ha, scale 0 to 10, 0 is no effect, 10 is complete control
[8] = Rate 62 g/ha, Postemergence, scale 0 to 10 (0 no effect, 10 complete control)
[9] = Rate 125 g/ha, Postemergence, scale 0 to 10, 0 is no effect, 10 is complete control
[10] = Postemergence, Rate 500 g/ha, scale of 0 to 10 where 0 is no effect and 10 is complete control
[11] = Preemergence, Rate 125 g/ha, scale of 0 to 10 where 0 is no effect and 10 is complete control
[12] = Preemergence, Rate 62 g/ha, scale of 0 to 10 where 0 is no effect and 10 is complete control

CC(=O)NCn1c(=O)on(C(=O)N(c2ccc(F)cc2)C(C)C)c1=O [Compound 473]
Plant response rating, S. Flatsedge (0 to 10 scale, 0 is no effect, 10 is complete control) (smallflower flatsedge; [1]): 0 | S. Flatsedge plant response rating (0 to 10 scale, 0 is no effect, 10 is complete control) (smallflower flatsedge; [2]): 0 | S. Flatsedge plant response rating (smallflower flatsedge; [3]): 0 | S. Flatsedge plant response rating (smallflower flatsedge; [4]): 0 | Soybean plant response rating (soybean; [5]): 1 | Plant response rating, Soybean (soybean; Preemergence, Rate 62 g/ha): 0 | Plant response rating, Soybean (soybean; Preemergence, Rate 125 g/ha): 0 | Soybean plant response rating (soybean; [6]): 0 | Soybean plant response rating (soybean; [7]): 0 | Soybean plant response rating (soybean; [8]): 1 | Soybean plant response rating (soybean; [9]): 1 | Crabgrass plant response rating (crabgrass; [5]): 3 | Crabgrass plant response rating (crabgrass; [10]): 8 | Plant response rating, Crabgrass (crabgrass; [11]): 2 | Crabgrass plant response rating (crabgrass; [6]): 4 | Crabgrass plant response rating (crabgrass; [7]): 7 | Crabgrass plant response rating (crabgrass; [8]): 1 | Crabgrass plant response rating (crabgrass; [9]): 2 | Morningglory plant response rating (morningglory; [5]): 2 | Plant response rating, Morningglory (morningglory; Preemergence, Rate 62 g/ha): 0 | Plant response rating, Morningglory (morningglory; Preemergence, Rate 125 g/ha): 0 | Morningglory plant response rating (morningglory; [6]): 0 | Morningglory plant response rating (morningglory; [7]): 0 | Morningglory plant response rating (morningglory; [8]): 0 | Morningglory plant response rating (morningglory; [9]): 1 | B. signalgrass plant response rating (surinam grass; Postemergence, Rate 250 g/ha, scale 0 to 10, 0 no effect, 10 complete control): 0 | B. signalgrass plant response rating (surinam grass; [10]): 0 | Plant response rating, B. signalgrass (surinam grass; [12]): 0 | Plant response rating, B. signalgrass (surinam grass; [11]): 0 | B. signalgrass plant response rating (surinam grass; [6]): 0 | B. signalgrass plant response rating (surinam grass; [7]): 0 | B. signalgrass plant response rating (surinam grass; [8]): 0 | B. signalgrass plant response rating (surinam grass; [9]): 0 | Plant response rating, Rice (0 to 10 scale, 0 is no effect, 10 is complete control) (rice; [1]): 0 | Rice plant response rating (0 to 10 scale, 0 is no effect, 10 is complete control) (rice; [2]): 0 | Rice plant response rating (rice; [3]): 0 | Rice plant response rating (rice; [4]): 0 | Wild oats plant response rating (wild oat; [5]): 0 | Plant response rating, Wild oats (wild oat; Preemergence, Rate 62 g/ha): 0 | Plant response rating, Wild oats (wild oat; Preemergence, Rate 125 g/ha): 0 | Wild oats plant response rating (wild oat; [6]): 0 | Wild oats plant response rating (wild oat; [7]): 0 | Wild oats plant response rating (wild oat; [8]): 0 | Wild oats plant response rating (wild oat; [9]): 0 | Wheat plant response rating (wheat; [5]): 0 | Plant response rating, Wheat (wheat; Preemergence, Rate 62 g/ha): 0 | Plant response rating, Wheat (wheat; Preemergence, Rate 125 g/ha): 0 | Wheat plant response rating (wheat; [6]): 0 | Wheat plant response rating (wheat; [7]): 0 | Wheat plant response rating (wheat; [8]): 0 | Wheat plant response rating (wheat; [9]): 0 | Corn plant response rating (corn; [5]): 0 | Corn plant response rating (corn; [10]): 0 | Plant response rating, Corn (corn; [12]): 0 | Plant response rating, Corn (corn; [11]): 0 | Corn plant response rating (corn; [6]): 0 | Corn plant response rating (corn; [7]): 0 | Corn plant response rating (corn; [8]): 0 | Corn plant response rating (corn; [9]): 0 | Plant response rating, Barnyardgrass (0 to 10 scale, 0 is no effect, 10 is complete control) (bamyardgrass; [1]): 0 | Barnyardgrass plant response rating (0 to 10 scale, 0 is no effect, 10 is complete control) (bamyardgrass; [2]): 0 | Barnyardgrass plant response rating (bamyardgrass; [3]): 0 | Barnyardgrass plant response rating (bamyardgrass; [4]): 0 | Rape plant response rating (rape; [5]): 0 | Plant response rating, Rape (rape; Preemergence, Rate 62 g/ha): 0 | Plant response rating, Rape (rape; Preemergence, Rate 125 g/ha): 0 | Rape plant response rating (rape; [6]): 0 | Rape plant response rating (rape; [7]): 0 | Rape plant response rating (rape; [8]): 0 | Rape plant response rating (rape; [9]): 0 | Blackgrass plant response rating (blackgrass; [5]): 0 | Blackgrass plant response rating (blackgrass; [10]): 0 | Plant response rating, Blackgrass (blackgrass; [12]): 0 | Plant response rating, Blackgrass (blackgrass; [11]): 0 | Blackgrass plant response rating (blackgrass; [6]): 0 | Blackgrass plant response rating (blackgrass; [7]): 3 | Blackgrass plant response rating (blackgrass; [8]): 0 | Blackgrass plant response rating (blackgrass; [9]): 0 | Cocklebur plant response rating (cocklebur; [5]): 0 | Cocklebur plant response rating (cocklebur; [10]): 0 | Plant response rating, Cocklebur (cocklebur; [12]): 0 | Plant response rating, Cocklebur (cocklebur; [11]): 0 | Cocklebur plant response rating (cocklebur; [7]): 0 | Cocklebur plant response rating (cocklebur; [8]): 0 | Cocklebur plant response rating (cocklebur; [9]): 0 | Redroot pigweed plant response rating (pigweed; [5]): 0 | Plant response rating, Redroot pigweed (pigweed; Preemergence, Rate 62 g/ha): 2 | Plant response rating, Redroot pigweed (pigweed; Preemergence, Rate 125 g/ha): 10 | Redroot pigweed plant response rating (pigweed; [6]): 10 | Redroot pigweed plant response rating (pigweed; [7]): 10 | Redroot pigweed plant response rating (pigweed; [8]): 0 | Redroot pigweed plant response rating (pigweed; [9]): 0 | Velvetleaf plant response rating (velvetleaf; [5]): 0 | Plant response rating, Velvetleaf (velvetleaf; Preemergence, Rate 62 g/ha): 0 | Plant response rating, Velvetleaf (velvetleaf; Preemergence, Rate 125 g/ha): 0 | Velvetleaf plant response rating (velvetleaf; [6]): 0 | Velvetleaf plant response rating (velvetleaf; [7]): 0 | Velvetleaf plant response rating (velvetleaf; [8]): 0 | Velvetleaf plant response rating (velvetleaf; [9]): 0 | Plant response rating, Ducksalad (0 to 10 scale, 0 is no effect, 10 is complete control) (duck salad; [1]): 0 | Ducksalad plant response rating (0 to 10 scale, 0 is no effect, 10 is complete control) (duck salad; [2]): 0 | Ducksalad plant response rating (duck salad; [3]): 0 | Ducksalad plant response rating (duck salad; [4]): 0 | Sugarbeets plant response rating (sugar beet; [5]): 0 | Plant response rating, Sugarbeets (sugar beet; Preemergence, Rate 62 g/ha): 0 | Plant response rating, Sugarbeets (sugar beet; Preemergence, Rate 125 g/ha): 0 | Sugarbeets plant response rating (sugar beet; [6]): 0 | Sugarbeets plant response rating (sugar beet; [7]): 0 | Sugarbeets plant response rating (sugar beet; [8]): 0 | Sugarbeets plant response rating (sugar beet; [9]): 0 | Giant foxtail plant response rating (giant foxtail; [5]): 6 | Giant foxtail plant response rating (giant foxtail; [10]): 7 | Plant response rating, Giant foxtail (giant foxtail; [12]): 2 | Plant response rating, Giant foxtail (giant foxtail; [11]): 3 | Giant foxtail plant response rating (giant foxtail; [6]): 4 | Giant foxtail plant response rating (giant foxtail; [7]): 7 | Giant foxtail plant response rating (giant foxtail; [8]): 1 | Giant foxtail plant response rating (giant foxtail; [9]): 2 | Nutsedge plant response rating (purple nutsedge; [5]): 0 | Plant response rating, Nutsedge (purple nutsedge; Preemergence, Rate 62 g/ha): 0 | Plant response rating, Nutsedge (purple nutsedge; Preemergence, Rate 125 g/ha): 0 | Nutsedge plant response rating (purple nutsedge; [6]): 0 | Nutsedge plant response rating (purple nutsedge; [8]): 0 | Nutsedge plant response rating (purple nutsedge; [9]): 0
